Measured values from PubChem BioAssay (NCI).
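Growth conditions: 96-well plates. Treatment: test compound, 48 hours, 5 concentrations. Analysis: linear interpolation between bracketing concentrations; unreached endpoints set to highest concentration. Definition used: TGI = concentration required for complete inhibition of growth.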

Assays:
Assay in all cases: NCI anticancer screen, dose series, 48 h
RPMI-8226 leukemia = system: RPMI-8226 leukemia
SF-268 CNS = system: SF-268 CNS
SF-295 CNS = system: SF-295 CNS
M19-MEL melanoma = system: M19-MEL melanoma
MOLT-4 leukemia = system: MOLT-4 leukemia
A498 renal = system: A498 renal
HCC-2998 colon = system: HCC-2998 colon
NCI-H23 lung = system: NCI-H23 lung
RXF-631 renal = system: RXF-631 renal
UO-31 renal = system: UO-31 renal
OVCAR-8 ovarian = system: OVCAR-8 ovarian
CCRF-CEM leukemia = system: CCRF-CEM leukemia
DMS 273 small cell lung = system: DMS 273 small cell lung
HOP-18 NSCLC = system: HOP-18 NSCLC
786-0 renal = system: 786-0 renal
DLD-1 colon = system: DLD-1 colon
SN12C renal = system: SN12C renal
COLO 205 colon = system: COLO 205 colon
HOP-62 NSCLC = system: HOP-62 NSCLC
SK-MEL-28 melanoma = system: SK-MEL-28 melanoma
IGROV1 ovarian = system: IGROV1 ovarian
U251 CNS = system: U251 CNS
LXFL 529 NSCLC = system: LXFL 529 NSCLC
HOP-92 NSCLC = system: HOP-92 NSCLC
CAKI-1 renal = system: CAKI-1 renal
UACC-257 melanoma = system: UACC-257 melanoma
MALME-3M melanoma = system: MALME-3M melanoma
LOX IMVI melanoma = system: LOX IMVI melanoma
OVCAR-5 ovarian = system: OVCAR-5 ovarian
HT29 colon = system: HT29 colon
HCT-15 colon = system: HCT-15 colon
ACHN renal = system: ACHN renal
SK-OV-3 ovarian = system: SK-OV-3 ovarian
DMS 114 small cell lung = system: DMS 114 small cell lung
KM12 colon = system: KM12 colon
NCI-H522 lung = system: NCI-H522 lung
OVCAR-3 ovarian = system: OVCAR-3 ovarian
RXF 393 renal = system: RXF 393 renal
SW-620 colon = system: SW-620 colon
SNB-75 CNS = system: SNB-75 CNS
SK-MEL-2 melanoma = system: SK-MEL-2 melanoma
OVCAR-4 ovarian = system: OVCAR-4 ovarian
NCI-H460 lung = system: NCI-H460 lung
SNB-78 CNS = system: SNB-78 CNS
SR leukemia = system: SR leukemia
SNB-19 CNS = system: SNB-19 CNS
NCI-H226 lung = system: NCI-H226 lung
UACC-62 melanoma = system: UACC-62 melanoma
K-562 leukemia = system: K-562 leukemia
KM20L2 colon = system: KM20L2 colon
EKVX NSCLC = system: EKVX NSCLC
M14 melanoma = system: M14 melanoma
A549 NSCLC = system: A549 NSCLC
SK-MEL-5 melanoma = system: SK-MEL-5 melanoma
HCT-116 colon = system: HCT-116 colon
TK-10 renal = system: TK-10 renal

## O=C(O)C1(c2ccccc2)CCCNCC1 (configuration not stated)
RPMI-8226 leukemia
  TGI: > 100 µM
SF-268 CNS
  TGI: > 100 µM
SF-295 CNS
  TGI: > 100 µM
M19-MEL melanoma
  TGI: > 100 µM
MOLT-4 leukemia
  TGI: > 100 µM
A498 renal
  TGI: > 100 µM
HCC-2998 colon
  TGI: > 100 µM
NCI-H23 lung
  TGI: > 100 µM
RXF-631 renal
  TGI: > 100 µM
UO-31 renal
  TGI: > 100 µM
OVCAR-8 ovarian
  TGI: > 100 µM
CCRF-CEM leukemia
  TGI: > 100 µM
DMS 273 small cell lung
  TGI: > 100 µM
HOP-18 NSCLC
  TGI: > 100 µM
786-0 renal
  TGI: > 100 µM
DLD-1 colon
  TGI: > 100 µM
SN12C renal
  TGI: > 100 µM
COLO 205 colon
  TGI: > 100 µM
HOP-62 NSCLC
  TGI: > 100 µM
SK-MEL-28 melanoma
  TGI: > 100 µM
IGROV1 ovarian
  TGI: > 100 µM
U251 CNS
  TGI: > 100 µM
LXFL 529 NSCLC
  TGI: > 100 µM
HOP-92 NSCLC
  TGI: > 100 µM
CAKI-1 renal
  TGI: > 100 µM
UACC-257 melanoma
  TGI: > 100 µM
MALME-3M melanoma
  TGI: > 100 µM
LOX IMVI melanoma
  TGI: > 100 µM
OVCAR-5 ovarian
  TGI: > 100 µM
HT29 colon
  TGI: > 100 µM
HCT-15 colon
  TGI: > 100 µM
ACHN renal
  TGI: > 100 µM
SK-OV-3 ovarian
  TGI: > 100 µM
DMS 114 small cell lung
  TGI: > 100 µM
KM12 colon
  TGI: > 100 µM
NCI-H522 lung
  TGI: > 100 µM
OVCAR-3 ovarian
  TGI: > 100 µM
RXF 393 renal
  TGI: > 100 µM
SW-620 colon
  TGI: > 100 µM
SNB-75 CNS
  TGI: > 100 µM
SK-MEL-2 melanoma
  TGI: > 100 µM
OVCAR-4 ovarian
  TGI: > 100 µM
NCI-H460 lung
  TGI: > 100 µM
SNB-78 CNS
  TGI: > 100 µM
SR leukemia
  TGI: > 100 µM
SNB-19 CNS
  TGI: > 100 µM
NCI-H226 lung
  TGI: > 100 µM
UACC-62 melanoma
  TGI: > 100 µM
K-562 leukemia
  TGI: > 100 µM
KM20L2 colon
  TGI: > 100 µM
EKVX NSCLC
  TGI: > 100 µM
M14 melanoma
  TGI: > 100 µM
A549 NSCLC
  TGI: > 100 µM
SK-MEL-5 melanoma
  TGI: > 100 µM
HCT-116 colon
  TGI: > 100 µM
TK-10 renal
  TGI: > 100 µM

## CN(C)Cc1cc(/C(=C(\C#N)c2ccccc2)c2ccc(O)cc2)ccc1O
RPMI-8226 leukemia
  TGI: 46.4 µM
SF-268 CNS
  TGI: 60.3 µM
SF-295 CNS
  TGI: 49.7 µM
M19-MEL melanoma
  TGI: 31.2 µM
MOLT-4 leukemia
  TGI: 39.3 µM
A498 renal
  TGI: > 100 µM
HCC-2998 colon
  TGI: 32.4 µM
NCI-H23 lung
  TGI: 52.5 µM
RXF-631 renal
  TGI: 37.2 µM
UO-31 renal
  TGI: 60.2 µM
OVCAR-8 ovarian
  TGI: 48.5 µM
CCRF-CEM leukemia
  TGI: 45.5 µM
DMS 273 small cell lung
  TGI: 36.4 µM
HOP-18 NSCLC
  TGI: 66.5 µM
786-0 renal
  TGI: 35.6 µM
DLD-1 colon
  TGI: 86.1 µM
SN12C renal
  TGI: 59.6 µM
COLO 205 colon
  TGI: 31.9 µM
HOP-62 NSCLC
  TGI: 33.9 µM
SK-MEL-28 melanoma
  TGI: 26.8 µM
IGROV1 ovarian
  TGI: 99.5 µM
U251 CNS
  TGI: 50.1 µM
LXFL 529 NSCLC
  TGI: 34.7 µM
HOP-92 NSCLC
  TGI: 52.4 µM
CAKI-1 renal
  TGI: 85.5 µM
UACC-257 melanoma
  TGI: 29.9 µM
MALME-3M melanoma
  TGI: 29.8 µM
LOX IMVI melanoma
  TGI: 26.8 µM
OVCAR-5 ovarian
  TGI: 72.4 µM
HT29 colon
  TGI: 44.8 µM
HCT-15 colon
  TGI: 96.5 µM
ACHN renal
  TGI: 32.4 µM
SK-OV-3 ovarian
  TGI: 87.5 µM
DMS 114 small cell lung
  TGI: 29.4 µM
KM12 colon
  TGI: 61 µM
NCI-H522 lung
  TGI: 26.1 µM
OVCAR-3 ovarian
  TGI: 50.3 µM
RXF 393 renal
  TGI: 14 µM
SW-620 colon
  TGI: 73.7 µM
SNB-75 CNS
  TGI: 63.6 µM
SK-MEL-2 melanoma
  TGI: 33.9 µM
OVCAR-4 ovarian
  TGI: 70.5 µM
NCI-H460 lung
  TGI: 48.9 µM
SNB-78 CNS
  TGI: 94.9 µM
SR leukemia
  TGI: 31.8 µM
SNB-19 CNS
  TGI: > 100 µM
NCI-H226 lung
  TGI: 56.9 µM
UACC-62 melanoma
  TGI: 33.4 µM
K-562 leukemia
  TGI: 40.4 µM
KM20L2 colon
  TGI: > 100 µM
EKVX NSCLC
  TGI: > 100 µM
M14 melanoma
  TGI: 23.1 µM
A549 NSCLC
  TGI: > 100 µM
SK-MEL-5 melanoma
  TGI: 28.9 µM
HCT-116 colon
  TGI: 25.2 µM
TK-10 renal
  TGI: 79.4 µM
